The values that follow come from patent US8357832B2, “F1B-TMIR plasmid vector and transgenic mouse” (National Health Research Institutes, priority 2009, dated 2013).

The test system of data set [1] is MDA-MB231 cells that constitutively express large amount of eGFP-tk. Conditions: cited from earlier work.
Data set [2] relates to CMV-TMIR transfected CHO cells. As to the kind of experiment: Luciferase activity assay after GCV treatment (sensitivity to GCV, functioning HSV1Δtk). The class given is cell-based, Chinese hamster. Particulars: low or high concentration of GCV (0.005 or 0.1 μg/ml), 72 h, normalized to β-gal.
In data set [3] the test system is F1B-TMIR transfected CHO cells. The data set is described as above. Conditions: low or high concentration of GCV (0.005 or 0.1 μg/ml), 72 h, normalized to β-gal. The class given is cell-based, Chinese hamster. How it is done:
FIG. 1. (A) Structure of the F1B-TMIR transgenic vector. The restriction sites mentioned in the construction method are shown. (B) Fluorescent pictures of CHO cells transiently transfected by F1B-TMIR vector. Scale bar=100 μm. (C) The luciferase activity in F1B-TMIR transfected CHO cells following the incubation with GCV. The data shown were the luciferase activity normalized to the β-gal activity from a co-transfected RSV-β-gal vector. Error bars represent mean+SEM, n=3, *P<0.05, compared to the untreated group.
Chinese hamster ovary […] (CHO-K1) were maintained in F-12 medium supplemented with 10% fetal bovine serum (FBS) and the antibiotics penicillin, streptomycin, and amophotericin B (PSA) in a 95% air and 5% CO2 humidified incubator. DNA vectors including a RSV β-galactosidase control vector for normalization of transfection efficiency were transfected into the cells using PolyFect (Qiagen) reagent by following manufacturer's protocol. […]
The TMIR vectors driven by CMV or F1B promoter were constructed as foregoing description. […] There was a decrease in the number of cells expressing GFP and in the intensity of fluorescence in F1B-TMIR transfected cells than cells transfected by CMV-TMIR (FIG. 1B) as a result of weaker transactivity by FIB promoter. […]

The subject of data set [4] is ZR75-1 cells that constitutively express low amount of eGFP-tk. Particulars: cited from earlier work.
Data set [5] has as its system TMIR expressing tissues (HSV1Δtk) of F1B-TMIR mice. Nature of the data set: [131I]FIAU γ-camera imaging of F1B-TMIR transgenic mice. It is filed as in vivo, mouse. The text has this: FIG. 4. […] Image of young female mice #7, #29 (Right) was shown for comparison.
Carrier-free [^131I] (2′-fluoro-2′-deoxy-1-β-D-arabinofuranosyl-5-iodouracil) ([^131I]FIAU) was synthesized from 5-trimethylstannyl-1-(2′-deoxy-2′-fluoro-1-β-D-arabinofuranosyl)-uracil (FTAU) by an oxidative iododestannylation method as previously described (Deng W P, Yang W K, Lai W F, et al. Non-invasive in vivo imaging with radiolabelled FIAU for monitoring cancer gene therapy using herpes simplex virus type 1 thymidine kinase and ganciclovir. Eur J Nucl Med Mol Imaging. January 2004; 31 (1):99-109). The radiochemical purity of [^131I]FIAU was >95%, as determined by thin layer chromatograph (TLC) method on a silica gel coated aluminum sheet using ethyl acetate-ethanol mixture (90:10, v/v) as the mobile phase. A Siemens E.CAM dual-head γ-camera, equipped with custom-made 1 mm pinhole collimator, was used for the animal γ-imaging. To block the thyroid uptake of radioiodine, mice were injected with sodium iodine saline (0.9% sodium iodine in normal saline, 1 ml/animal) 15 min prior to the intraperitoneal injection of 11.1 MBq [^131I] FIAU. The animal was laid in the prone position and 4 cm distant from the pinhole center to provide a full coverage of the body. […] The image was scanned one week after injection of probe to ensure adequate clearance of unwanted background radioactivity. […]

As for `Nc1nc(O)c2ncn(COC(CO)CO)c2n1` [GCV, Ganciclovir], the “ED50 (the dose resulted in 50% of cell death after 7 days)” value is 5 ng/mL in data set [1] and “around 0.1 μg/ml” in data set [4]. Also, the “loss of luciferase activity” value is on record as 45% in data set [2] and 35% in data set [3].
Regarding `O=c1[nH]c(=O)n([C@@H]2O[C@H](CO)[C@@H](O)[C@@H]2F)cc1[131I]` [[^131I]FIAU, [^131I] (2′-fluoro-2′-deoxy-1-β-D-arabinofuranosyl-5-iodouracil)], in data set [5] (F1B-TMIR mice #2, #7, #29, one week after probe injection), the “uptake at head (γ imaging)” value is “low uptake”. In addition, the “uptake in testis (γ imaging)” value in data set [5] (male F1B-TMIR mice, one week after intraperitoneal injection of 11.1 MBq probe, absent in female mice) is listed as “strong uptake”.
